Drawing on US10703764B2, “Benzopiperazine compositions as BET bromodomain inhibitors” (FORMA Therapeutics, Inc., priority 2013, dated 2020), this text covers IC50 for 34 compounds.

Assay [1] deals with T1, BRD4 BD1 (Homo sapiens, UniProt O60885).
T1 construct: made in house
As to the kind of experiment: AlphaScreen binding assay, BRD4 Bromodomain 1. The essentials: (§1)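 An AlphaScreen competition format was used with His-BRD4 BD1 or BD2 and biotin-H4 K5/8/12/16-acetyl peptide, each at matched final levels of 50 nM (BD1) or 100 nM (BD2). Incubation in HEPES/NaCl buffer with 0.1% BSA and 0.01% Triton X-100 ran ≥1 h before IC50 determination.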

Assay [2] deals with T2, BRD4 BD2 (Homo sapiens, UniProt O60885).
T2 construct: made in house
The experiment in a line: AlphaScreen binding assay, BRD4 Bromodomain 2. The gist of the method:
as §1

The subject of assay [3] is MV4-11 cells. As to the kind of experiment: Oncology cell growth assay (3-day proliferation, CellTiter-Glo). It is filed as cell-based. Particulars: Homo sapiens, MV4-11, 72 h, AML cell line MV4-11, 72 hours, compounds grouped by IC50 range, read-out: MV4-11 IC50 (inhibition of proliferation, gIC50). The gist of the method: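 72 h, 37° C, 5% CO2; MV4-11, 3000 cells/well, RPMI 1640 + 10% FBS. Compound final 10, 3.3, 1.1, 0.37, 0.12, 0.041, 0.013, 0.0045 μM. Readout CellTiter-Glo luminescence; gIC50 by 4-parameter logistic fit, normalised to DMSO and no-cell background.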

Molecules are shown by their SMILES.

As for `CC(=O)N1c2cc(C(N)=O)c(-c3cnn(C4CC4)c3)cc2N(C(=O)OC(C)C)C[C@@H]1C` [Example I-212, Isopropyl (S)-4-acetyl-6-carbamoyl-7-(1-cyclopropyl-1H-pyrazol-4-yl)-3-methyl-3,4-dihydroquinoxaline-1(2H)-carboxylate], the IC50 in assay [1] lay within 100 to 1000 nM; in assay [2] it was 50 to 500 nM; in assay [3], 100 to 500 nM.
Turning to `CC(=O)N1c2cc(NS(C)(=O)=O)c(-c3cnn(C4CC4)c3)cc2N(C(=O)OC(C)C)C[C@@H]1C` [Example I-213, Isopropyl (S)-4-acetyl-7-(1-cyclopropyl-1H-pyrazol-4-yl)-3-methyl-6-(methylsulfonamido)-3,4-dihydroquinoxaline-1(2H)-carboxylate], the IC50 in assay [1] is above 10000 nM; in assay [2], above 500 nM; in assay [3], above 500 nM.
`CC(=O)Nc1cc2c(cc1-c1cnn(C3CC3)c1)N(C(=O)OC(C)C)C[C@H](C)N2C(C)=O` [Example I-214, Isopropyl (S)-6-acetamido-4-acetyl-7-(1-cyclopropyl-1H-pyrazol-4-yl)-3-methyl-3,4-dihydroquinoxaline-1(2H)-carboxylate]: the IC50 in assay [1] lay within 100 to 1000 nM; in assay [2] it was 50 to 500 nM; in assay [3], 100 to 500 nM.
For `CNC(=O)Nc1cc2c(cc1-c1cnn(C3CC3)c1)N(C(=O)OC(C)C)C[C@H](C)N2C(C)=O` [Example I-215, Isopropyl (S)-4-acetyl-7-(1-cyclopropyl-1H-pyrazol-4-yl)-3-methyl-6-(3-methylureido)-3,4-dihydroquinoxaline-1(2H)-carboxylate], the IC50 in assay [1] is 100 to 1000 nM; in assay [2] it was 50 to 500 nM; in assay [3] it was 100 to 500 nM.
In the case of `CC(=O)N1c2cc(N)c(-c3ccc(S(C)(=O)=O)cc3)cc2N(C(=O)OC(C)C)C[C@@H]1C` [Example I-216, Isopropyl (S)-4-acetyl-6-amino-3-methyl-7-(4-(methylsulfonyl)phenyl)-3,4-dihydroquinoxaline-1 (2H)-carboxylate], the IC50 in assay [1] is 1000 to 10000 nM; in assay [2], above 500 nM; in assay [3], above 500 nM.
For the compound `CC(=O)N1c2cc(Br)c(-c3ccc(S(C)(=O)=O)cc3)cc2N(C(=O)OC(C)C)C[C@@H]1C` [Example I-217, Isopropyl (S)-4-acetyl-6-bromo-3-methyl-7-(4-(methylsulfonyl)phenyl)-3,4-dihydroquinoxaline-1(2H)-carboxylate], the IC50 in assay [1] is 1000 to 10000 nM; in assay [2], above 500 nM; in assay [3], above 500 nM.
For `CC(=O)N1c2cc(Cl)c(-c3ccc(S(C)(=O)=O)cc3)cc2N(C(=O)OC(C)C)C[C@@H]1C` [Example I-218, Isopropyl (S)-4-acetyl-6-chloro-3-methyl-7-(4-(methylsulfonyl)phenyl)-3,4-dihydroquinoxaline-1(2H)-carboxylate], the IC50 is 1000 to 10000 nM in assay [1], above 500 nM in assay [2] and above 500 nM in assay [3].
`CC(=O)N1c2cc(C#N)c(-c3ccc(S(C)(=O)=O)cc3)cc2N(C(=O)OC(C)C)C[C@@H]1C` [Example I-219, Isopropyl (S)-4-acetyl-6-cyano-3-methyl-7-(4-(methylsulfonyl)phenyl)-3,4-dihydroquinoxaline-1(2H)-carboxylate]: the IC50 in assay [1] was 1000 to 10000 nM; in assay [2] it was above 500 nM; in assay [3] it was above 500 nM.
In the case of `CC(=O)N1c2ccc(-c3ccc(S(C)(=O)=O)cc3)cc2N(C(=O)Oc2ccccc2)C[C@@H]1C` [Example I-223], the IC50 was 100 to 1000 nM in assay [1], below 50 nM in assay [2] and below 100 nM in assay [3].
The matching figures for `CCOC(=O)N1C[C@H](C)N(C(C)=O)c2ccc(-c3ccc(S(C)(=O)=O)cc3)cc21` [Example I-224]: 100 to 1000 nM, 50 to 500 nM and above 500 nM.
As for `CC(=O)N1c2ccc(-c3ccc(S(C)(=O)=O)cc3)cc2N(C(=O)Oc2ccccc2Cl)C[C@@H]1C` [Example I-225], the IC50 is 100 to 1000 nM in assay [1], below 50 nM in assay [2] and below 100 nM in assay [3].
As for `COc1ccccc1OC(=O)N1C[C@H](C)N(C(C)=O)c2ccc(-c3ccc(S(C)(=O)=O)cc3)cc21` [Example I-227], the IC50 in assay [1] is 100 to 1000 nM; in assay [2], below 50 nM; in assay [3] it was below 100 nM.
As to `COC(=O)c1ccc(OC(=O)N2C[C@H](C)N(C(C)=O)c3ccc(-c4ccc(S(C)(=O)=O)cc4)cc32)cc1` [Example I-229], the IC50 in assay [1] is 100 to 1000 nM; in assay [2], below 50 nM; in assay [3] it was below 100 nM.
Turning to `CCCCOC(=O)N1C[C@H](C)N(C(C)=O)c2ccc(-c3ccc(S(C)(=O)=O)cc3)cc21` [Example I-231], the IC50 in assay [1] was in the range of 100 to 1000 nM; in assay [2], 50 to 500 nM; in assay [3], 100 to 500 nM.
Consider `CC(=O)N1c2ccc(-c3ccc(S(C)(=O)=O)cc3)cc2N(C(=O)Oc2ccc(C)cc2)C[C@@H]1C` [Example I-232], for which the IC50 is 100 to 1000 nM in assay [1], 50 to 500 nM in assay [2] and below 100 nM in assay [3].
As to `COc1ccc(OC(=O)N2C[C@H](C)N(C(C)=O)c3ccc(-c4ccc(S(C)(=O)=O)cc4)cc32)cc1` [Example I-233], the IC50 in assay [1] is 100 to 1000 nM; in assay [2], below 50 nM; in assay [3] it was below 100 nM.
Taken in the same sequence, the figures for `CC(=O)N1c2ccc(-c3ccc(S(C)(=O)=O)cc3)cc2N(C(=O)Oc2ccc(F)cc2)C[C@@H]1C` [Example I-234] were 100 to 1000 nM, below 50 nM and below 100 nM.
Take `CC(=O)N1c2ccc(-c3ccc(S(C)(=O)=O)cc3)cc2N(C(=O)OC2CCCC2)C[C@@H]1C` [Example I-236]: the IC50 is 1000 to 10000 nM in assay [1], above 500 nM in assay [2] and above 500 nM in assay [3].
For the compound `CC(=O)N1c2ccc(-c3ccc(S(C)(=O)=O)cc3)cc2N(C(=O)Oc2cccc(C(F)(F)F)c2)C[C@@H]1C` [Example I-237], the IC50 in assay [1] is 1000 to 10000 nM; in assay [2], below 50 nM; in assay [3], 100 to 500 nM.
For the compound `CC(=O)N1c2ccc(-c3ccc(S(C)(=O)=O)cc3)cc2N(C(=O)OC2CCCCC2)C[C@@H]1C` [Example I-238], the IC50 in assay [1] is 100 to 1000 nM; in assay [2] it was below 50 nM; in assay [3], 100 to 500 nM.
In the case of `CC(=O)N1c2ccc(-c3ccc(S(C)(=O)=O)cc3)cc2N(C(=O)Oc2ccc3ccccc3c2)C[C@@H]1C` [Example I-239], the IC50 in assay [1] was 1000 to 10000 nM; in assay [2], below 50 nM; in assay [3], 100 to 500 nM.
As for `CC(=O)N1c2ccc(-c3ccc(S(C)(=O)=O)cc3)cc2N(C(=O)C2CCC2)C[C@@H]1C` [Example I-245], the IC50 in assay [1] is 1000 to 10000 nM; in assay [2], 50 to 500 nM; in assay [3], above 500 nM.
Regarding `CC(=O)N1c2ccc(-c3ccc(S(C)(=O)=O)cc3)cc2N(C(=O)OCC(C)C)C[C@@H]1C` [Example I-250], the IC50 in assay [1] was 100 to 1000 nM; in assay [2] it was 50 to 500 nM; in assay [3] it was 100 to 500 nM.
Take `CC(=O)N1c2ccc(-c3ccc(S(C)(=O)=O)cc3)cc2N(C(=O)Oc2cccc3ccccc23)C[C@@H]1C` [Example I-251]: the IC50 in assay [1] was 1000 to 10000 nM; in assay [2] it was 50 to 500 nM; in assay [3] it was above 500 nM.
The matching figures for `CCCOC(=O)N1C[C@H](C)N(C(C)=O)c2ccc(-c3ccc(S(C)(=O)=O)cc3)cc21` [Example I-252]: 100 to 1000 nM, 50 to 500 nM and 100 to 500 nM.
On to `CC(=O)N1c2ccc(-c3cnn(C4CC4)c3)cc2N(C(=O)Oc2ccccc2)C[C@@H]1C` [Example I-256], for which the IC50 in assay [1] is 100 to 1000 nM; in assay [2] it was below 50 nM; in assay [3] it was below 100 nM.
For `CC(=O)N1c2ccc(-c3cnn(C4CC4)c3)cc2N(C(=O)Oc2ccccc2Cl)C[C@@H]1C` [Example I-257], the IC50 in assay [1] is 100 to 1000 nM; in assay [2], below 50 nM; in assay [3] it was 100 to 500 nM.
Regarding `COc1ccccc1OC(=O)N1C[C@H](C)N(C(C)=O)c2ccc(-c3cnn(C4CC4)c3)cc21` [Example I-258], the figures for the IC50 in assay [1], in assay [2] and in assay [3] were 100 to 1000 nM, below 50 nM and below 100 nM, respectively.
Take `CC(=O)N1c2ccc(-c3cnn(C4CC4)c3)cc2N(C(=O)Oc2cccc(C(F)(F)F)c2)C[C@@H]1C` [Example I-259]: the IC50 was 1000 to 10000 nM in assay [1], below 50 nM in assay [2] and 100 to 500 nM in assay [3].
Taken in the same sequence, the figures for `CC(=O)N1c2ccc(-c3cnn(C4CC4)c3)cc2N(C(=O)Oc2ccc(Cl)cc2)C[C@@H]1C` [Example I-260] were below 100 nM, below 50 nM and 100 to 500 nM.
For the compound `CC(=O)N1c2ccc(-c3cnn(C4CC4)c3)cc2N(C(=O)Oc2ccc(F)cc2)C[C@@H]1C` [Example I-261], the IC50 in assay [1] is 100 to 1000 nM; in assay [2], below 50 nM; in assay [3] it was 100 to 500 nM.
Consider `COC(=O)c1ccc(OC(=O)N2C[C@H](C)N(C(C)=O)c3ccc(-c4cnn(C5CC5)c4)cc32)cc1` [Example I-262], for which the IC50 in assay [1] is 100 to 1000 nM; in assay [2], below 50 nM; in assay [3] it was 100 to 500 nM.
`COc1ccc(OC(=O)N2C[C@H](C)N(C(C)=O)c3ccc(-c4cnn(C5CC5)c4)cc32)cc1` [Example I-263]: the results for the IC50 in assay [1], in assay [2] and in assay [3] were 100 to 1000 nM, below 50 nM and 100 to 500 nM, respectively.
Regarding `CC(=O)N1c2ccc(-c3cnn(C4CC4)c3)cc2N(C(=O)Oc2ccc(C)cc2)C[C@@H]1C` [Example I-264], the IC50 in assay [1] is 100 to 1000 nM; in assay [2], below 50 nM; in assay [3] it was below 100 nM.
